{
  "source": "PubChem BioAssay (NCI)",
  "experiment_in_all_cases": "NCI-60 cell line screen, 48 h",
  "key": {"OVCAR-4 ovarian": {"system": "OVCAR-4 ovarian"}, "SW-620 colon": {"system": "SW-620 colon"}, "SK-MEL-2 melanoma": {"system": "SK-MEL-2 melanoma"}, "SF-539 CNS": {"system": "SF-539 CNS"}, "HOP-92 NSCLC": {"system": "HOP-92 NSCLC"}, "U251 CNS": {"system": "U251 CNS"}, "IGROV1 ovarian": {"system": "IGROV1 ovarian"}, "OVCAR-3 ovarian": {"system": "OVCAR-3 ovarian"}, "ACHN renal": {"system": "ACHN renal"}, "NCI-H460 lung": {"system": "NCI-H460 lung"}, "HCT-15 colon": {"system": "HCT-15 colon"}, "SNB-75 CNS": {"system": "SNB-75 CNS"}, "NCI/ADR-RES ovarian": {"system": "NCI/ADR-RES ovarian"}, "SK-OV-3 ovarian": {"system": "SK-OV-3 ovarian"}, "TK-10 renal": {"system": "TK-10 renal"}, "A549 NSCLC": {"system": "A549 NSCLC"}, "RPMI-8226 leukemia": {"system": "RPMI-8226 leukemia"}, "OVCAR-8 ovarian": {"system": "OVCAR-8 ovarian"}, "KM12 colon": {"system": "KM12 colon"}, "NCI-H226 lung": {"system": "NCI-H226 lung"}, "PC-3 prostate": {"system": "PC-3 prostate"}, "NCI-H23 lung": {"system": "NCI-H23 lung"}, "MDA-MB-435": {"system": "MDA-MB-435"}, "RXF 393 renal": {"system": "RXF 393 renal"}, "HOP-62 NSCLC": {"system": "HOP-62 NSCLC"}, "SK-MEL-28 melanoma": {"system": "SK-MEL-28 melanoma"}, "SNB-19 CNS": {"system": "SNB-19 CNS"}, "HT29 colon": {"system": "HT29 colon"}, "SF-268 CNS": {"system": "SF-268 CNS"}},
  "note": "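Tested at 5 concentrations; 48 h exposure; 96-well plates; endpoints linearly interpolated, else capped at highest concentration. Here, GI50 denotes the concentration required for 50% inhibition of growth. TGI denotes the concentration required for complete inhibition of growth.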",
  "data": [
    {"smiles": "CN1CCN(c2ccc3nc(-c4c5cccccc-5[nH]c4=O)[nH]c3c2)CC1", "values": [
      {"measurement": "GI50", "setting": "OVCAR-4 ovarian", "result": 13.9, "unit": "µM"},
      {"measurement": "TGI", "setting": "OVCAR-4 ovarian", "result": 55.2, "unit": "µM"},
      {"measurement": "GI50", "setting": "SW-620 colon", "result": 5.79, "unit": "µM"},
      {"measurement": "TGI", "setting": "SW-620 colon", "result": 43.7, "unit": "µM"},
      {"measurement": "GI50", "setting": "SK-MEL-2 melanoma", "result": 27.1, "unit": "µM"},
      {"measurement": "TGI", "setting": "SK-MEL-2 melanoma", "result": "> 66.9", "unit": "µM"},
      {"measurement": "GI50", "setting": "SF-539 CNS", "result": 10.1, "unit": "µM"},
      {"measurement": "TGI", "setting": "SF-539 CNS", "result": 22.8, "unit": "µM"},
      {"measurement": "GI50", "setting": "HOP-92 NSCLC", "result": 18, "unit": "µM"},
      {"measurement": "TGI", "setting": "HOP-92 NSCLC", "result": "> 100", "unit": "µM"},
      {"measurement": "GI50", "setting": "U251 CNS", "result": 11.6, "unit": "µM"},
      {"measurement": "TGI", "setting": "U251 CNS", "result": 41, "unit": "µM"},
      {"measurement": "GI50", "setting": "IGROV1 ovarian", "result": 5.27, "unit": "µM"},
      {"measurement": "TGI", "setting": "IGROV1 ovarian", "result": 45.5, "unit": "µM"},
      {"measurement": "GI50", "setting": "OVCAR-3 ovarian", "result": 17.2, "unit": "µM"},
      {"measurement": "TGI", "setting": "OVCAR-3 ovarian", "result": 58.2, "unit": "µM"},
      {"measurement": "GI50", "setting": "ACHN renal", "result": 6.09, "unit": "µM"},
      {"measurement": "TGI", "setting": "ACHN renal", "result": 60.9, "unit": "µM"},
      {"measurement": "GI50", "setting": "NCI-H460 lung", "result": 5.45, "unit": "µM"},
      {"measurement": "TGI", "setting": "NCI-H460 lung", "result": 27.2, "unit": "µM"},
      {"measurement": "GI50", "setting": "HCT-15 colon", "result": 11.5, "unit": "µM"},
      {"measurement": "TGI", "setting": "HCT-15 colon", "result": 55.9, "unit": "µM"},
      {"measurement": "GI50", "setting": "SNB-75 CNS", "result": 7.64, "unit": "µM"},
      {"measurement": "TGI", "setting": "SNB-75 CNS", "result": "> 45.2", "unit": "µM"},
      {"measurement": "GI50", "setting": "NCI/ADR-RES ovarian", "result": 23.4, "unit": "µM"},
      {"measurement": "TGI", "setting": "NCI/ADR-RES ovarian", "result": 97.4, "unit": "µM"},
      {"measurement": "GI50", "setting": "SK-OV-3 ovarian", "result": 9.43, "unit": "µM"},
      {"measurement": "TGI", "setting": "SK-OV-3 ovarian", "result": 83.1, "unit": "µM"},
      {"measurement": "GI50", "setting": "TK-10 renal", "result": 27.9, "unit": "µM"},
      {"measurement": "TGI", "setting": "TK-10 renal", "result": "> 74.5", "unit": "µM"},
      {"measurement": "GI50", "setting": "A549 NSCLC", "result": 7.58, "unit": "µM"},
      {"measurement": "TGI", "setting": "A549 NSCLC", "result": "> 59.3", "unit": "µM"},
      {"measurement": "GI50", "setting": "RPMI-8226 leukemia", "result": 16.8, "unit": "µM"},
      {"measurement": "TGI", "setting": "RPMI-8226 leukemia", "result": 62.4, "unit": "µM"},
      {"measurement": "GI50", "setting": "OVCAR-8 ovarian", "result": 11.3, "unit": "µM"},
      {"measurement": "TGI", "setting": "OVCAR-8 ovarian", "result": "> 72.2", "unit": "µM"},
      {"measurement": "GI50", "setting": "KM12 colon", "result": 0.266, "unit": "µM"},
      {"measurement": "TGI", "setting": "KM12 colon", "result": 13.9, "unit": "µM"},
      {"measurement": "GI50", "setting": "NCI-H226 lung", "result": 7.18, "unit": "µM"},
      {"measurement": "TGI", "setting": "NCI-H226 lung", "result": 55.9, "unit": "µM"},
      {"measurement": "GI50", "setting": "PC-3 prostate", "result": 17.4, "unit": "µM"},
      {"measurement": "TGI", "setting": "PC-3 prostate", "result": "> 100", "unit": "µM"},
      {"measurement": "GI50", "setting": "NCI-H23 lung", "result": 13.9, "unit": "µM"},
      {"measurement": "TGI", "setting": "NCI-H23 lung", "result": 51.7, "unit": "µM"},
      {"measurement": "GI50", "setting": "MDA-MB-435", "result": 14.3, "unit": "µM"},
      {"measurement": "TGI", "setting": "MDA-MB-435", "result": 29.7, "unit": "µM"},
      {"measurement": "GI50", "setting": "RXF 393 renal", "result": 3.39, "unit": "µM"},
      {"measurement": "TGI", "setting": "RXF 393 renal", "result": 15.8, "unit": "µM"},
      {"measurement": "GI50", "setting": "HOP-62 NSCLC", "result": 10.5, "unit": "µM"},
      {"measurement": "TGI", "setting": "HOP-62 NSCLC", "result": 54.7, "unit": "µM"},
      {"measurement": "GI50", "setting": "SK-MEL-28 melanoma", "result": 15.6, "unit": "µM"},
      {"measurement": "TGI", "setting": "SK-MEL-28 melanoma", "result": 30.3, "unit": "µM"},
      {"measurement": "GI50", "setting": "SNB-19 CNS", "result": 12.3, "unit": "µM"},
      {"measurement": "TGI", "setting": "SNB-19 CNS", "result": 71.6, "unit": "µM"},
      {"measurement": "GI50", "setting": "HT29 colon", "result": 8, "unit": "µM"},
      {"measurement": "TGI", "setting": "HT29 colon", "result": 23.1, "unit": "µM"},
      {"measurement": "GI50", "setting": "SF-268 CNS", "result": 11.9, "unit": "µM"},
      {"measurement": "TGI", "setting": "SF-268 CNS", "result": 40.3, "unit": "µM"}
    ]}
  ]
}
